Laboratory results reported in patent US12117402B2, “Bioluminescent sensor for isothiocyanates” (The United States of America, as represented by the …, priority 2021, dated 2024).

Experiments:
[1] = system: P. fluorescens SBW25 expressing an ilux operon under control of the saxA promoter; type: cell-based, Pseudomonas fluorescens SBW25; conditions: for responsiveness of the biosensor to the compound: FIG. 4
Experimental: (§1) For the basic microplate assay, the reporter biosensor was cultivated overnight in LB media with 50 μg/mL carbenicillin and 15 μg/mL gentamicin. The 200 μL assay was performed in opaque 96-well microtiter plates by adding ITC sample to the reporter cells at a final concentration of 0.05 OD600 in LB medium. All assay plates included cell-only controls (no ITC sample). Luminescence was measured in either a microplate spectrophotometer (Biotek Synergy HT) or a designated luminometer (Molecular Devices Spectramax L) for a 20-hour period in 15-minute intervals with ˜500 RPM shaking. Data were collected using auto-scaled gain or photon counting to increase signal detection. Modifications to the assay for the luxCDABE-based biosensor included a lower bacterial OD600 of 0.005, incubation at 31° C., and measurement every 30 min.
To increase the luminescent signal, the luxCDABE operon of the pHT #3 plasmid was replaced with the enhanced ilux operon that has an additional open reading frame encoding flavin mononucleotide (FMN) reductase and other optimizations (Gregor et al, Proc. Natl. Acad. Sci., (2018) 115(3): 962-967). All other components remained the same as the precursor, and this plasmid was assembled using the Gibson Assembly method (Gibson et al, Nature Meth., (2009) 6(5):343-347). The resulting plasmid, named pHT #9, was integrated into the P. fluorescens SBW25 genome in the same manner as pHT #3.
Plant extracts were prepared from seeds germinated in small petri dishes containing 0.5×Murashige and Skoog Medium and 0.3% agar for up to 4-days under artificial lighting. Germinated seeds and/or seedlings were transferred to 2-mL screwcap tubes containing steel beads. Water was added at a 1:2 ratio of plant weight to water volume. The tissue was macerated and pelleted by centrifugation. Supernatants were diluted prior to use in the basic microplate protocol.
To analyze the ability of the biosensor to detect ITCs in plant residues, seed meal was incubated on a rotating shaker at room temperature for 24 hrs with a 1:10 seed meal:water ratio (by mass) in 2.0 mL microcentrifuge tubes. Centrifuging and assaying of supernatant were conducted as described above for seedlings. Two seed meal types were tested—Sinapis alba (white mustard) and Brassica juncea (Indian mustard)—both of which are used in commercial biofumigation.
Biofumigated soil was collected from a field study in Hermiston, Oregon. The soils were managed in a 3-yr rotation with a Brassica cover crop mix (B. juncea Caliente 199 and Caliente Rojo; allyl ITC). The Brassica cover crop was tilled into the soil the day prior to sampling and the soils were stored frozen until analysis. […] Frozen soils were thawed and subsamples were homogenized (1600 MiniG homogenizer, 1500 RPM, 7 min), and rotated at room temperature for 45 min to allow time for glucosinolate hydrolysis. The sample was centrifuged for 5 min at 4,000×g and 100 μL extract was used in the basic microplate assay.
For analysis of seed meal amended soil, B. napus and S. alba seed meals were each added to a moist silt loam soils at 0.3% and 3% weight/dry weight. The soil/seed meals were mixed, transferred to small zippered bags and stored in gas-impermeable bags at room temperature. Soil amended with wheat straw and unamended soil were included as ITC-free controls.

[2] = aqueous solutions, pH 6; cited from earlier work
[3] = system: P. fluorescens SBW25 expressing the luxCDABE operon under control of the saxA promoter
Excerpt: The plasmid vector pUC18T-Tn7T-lux-Gm (Damron et al., Appl. Environ. Microbiol. (2013) 79(13): 4149-4153), which contains Tn7 sites for integration into the P. fluorescens genome, a luxCDABE operon responsible for bioluminescence, and a gentamicin resistance marker. This plasmid also contained a pl promoter, an unregulated promoter upstream of the luxCDABE operon, which was removed and replaced with the desired promoter.
The saxA promoter was PCR amplified from Pseudomonas cannabina and cloned upstream of the luxCDABE gene operon. […] The resulting plasmid containing the luxCDABE operon under control of the saxA promoter was termed pHT #3. This plasmid was transformed into P. fluorescens SBW25, via electroporation and selected for gentamicin resistance.
as §1

## Oc1ccc(CN=C=S)cc1 [4-hydroxybenzyl ITC]
[1]
  responsiveness of the biosensor to the compound: did not respond
[2]
  half-life: 6 min

## CNC(=S)S [Metam-sodium]
[1]
  responsiveness of the biosensor to the compound: responsive

## N#C[S-].[K+] [potassium thiocyanate]
[1]
  responsiveness of the biosensor to the compound: did not respond

## C[S+]([O-])CCCCN=C=S (centres unmarked) [sulforaphane]
[3]; 0, 25, 50, 75, 100 μM
  response of luminescence to the amount of ITC: dose dependent response
[3]; 100 μM of ITC
  area under the curve (AUC) value of luminescence: 1.5×10^7
  peak luminescence: approximately 700 relative light units (RLUs)
[3]; regardless of the concentration, 0-100 μM
  time of peak luminescence after inoculation: 8 to 9 h
[1]
  time of initial peak luminescence: 4 to 4.5 h
  responsiveness of the biosensor to the compound: responsive
[1]; 0, 5, 10, 25, 50, 75, 100 μM
  response of luminescence to the amount of ITC: dose-dependent response
[1]; 100 μM dose
  increase in AUC compared to the luxCDABE biosensor: 2 fold
  increase in the maximum RLU compared to the luxCDABE biosensor: 7.7 fold
[1]; low-dose range 0-20 μM
  concentrations detected (limits of detection): 1 to 2 µM
